Read-outs that look alike come from different tables or passages of the source. Peptide text beside a SMILES is read from it.
Assays:
dsDNA (DS) = assay: CD melting of double-stranded DNA; type: binding; conditions: for TM DS / ΔTM DS: 10 µM DNA, SEM; for TM DS / effect on dsDNA melting compared to the solvent controls, in words: 10 mM NaCaco pH 6.6, 10 molar eqv. peptide; for TM DS: mean ± SEM (n=4); for ΔTM DS: 10 mM sodium cacodylate pH 6.6, 10 molar equivalents peptide vs DMSO, mean ± SEM (n = 4); for effect on dsDNA melting compared to the solvent controls, in words: 10 µM DS
Procedure: (§1) Circular Dichroism (CD) melting experiments were performed in a Jasco J-1500 spectropolarimeter with 10 µM DNA samples in 10 mM sodium cacodylate buffer at pH 6.6 using a 1 mm path length quartz cuvette. […] The samples were kept at 5°C for 5 min before starting the melt, with a temperature increase of 1°C/min, a 0.5°C data interval, and a 60-s holding time at each target temperature. Four scans were accumulated data pitch of 0.5 nm, a scanning speed of 200 nm/min, 1 s response time, 2 nm bandwidth, and 200 mdeg sensitivity. Furthermore, two CD melting experiment repeats were performed recording C-rich c-Myc at 288 and 320 nm, G-rich c-Myc at 264 and 320 nm, and dsDNA at 253 and 320 nm with the settings as described for full spectrum measurements. Data were zero corrected to 320 nm and baseline drift. The melting temperature (TM) was concluded using the Boltzmann or biphasic fitting curve on the folded fraction data using GraphPad Prism version 10.1.2. Data were processed as mean ± SEM (n = 4) and one-way ANOVA followed by Bonferroni post-hoc test to determine significant changes between peptides and controls.

c-MycC52 iM = assay: Fluorescent indicator displacement (FID) assay with Thiazole Orange; type: binding; conditions: 1 µM c-MycC52, 2 µM TO, 10 mM sodium cacodylate pH 6.6, peptides 25-200 µM, n = 3
Procedure: Fluorescent indicator displacement (FID) experiments used in this publication are based on the first FID assay developed for iM DNA [35]. The FID experiments were performed on a BMG CLARIOstar plate reader using 96-well, solid black flat-bottom plates. Thiazole Orange (TO) was the indicator, and the stock solution was prepared at 10 mM in DMSO. The TO stock was diluted into the appropriate buffer to 2 µM. Each well received 9 µl of the 2 µM TO solution, was excited at 430 nm, and fluorescence emission at 450 nm was measured; this was normalized to 0% to account for background fluorescence. One microlitre of […] DNA was added to each well and shaken in the plate reader for 30 s using double orbital shaking at 700 rpm and left for 10 min to equilibrate. Following equilibration, fluorescence emission was measured and normalized to 100% representing maximum fluorescence. Peptides were titrated starting at 25 µM, with 0.9 µl additions into each well in triplicate, until a final concentration of 200 µM was reached, and fluorescence emission was measured after each addition. Fluorescence emission for each well was normalized between 0% and 100%, which was taken away from 100 to give the percentage of displacement. The data were analyzed in Origin data analysis software and fitted with a hyperbolic dose–response curve from which the DC50 value was interpolated.
The relative binding of the five peptide ligands to the folded c-MycC52 iM was assessed via a FID assay using TO (Fig. 1). These experiments were performed in 10 mM sodium cacodylate at pH 6.6, the transitional pH of the c-Myc iM-forming sequence. As iM-formation is reduced at higher pH and higher ionic strength, additional stabilizing cations were avoided to allow the highest proportion of iM formation at the highest pH, to represent as close to physiological pH conditions as possible.
Figure 1. Concentration-dependent interaction of peptides with c-MycC52 iM determined via FID assay. The assay was performed with 1 µM c-MycC52 in 10 mM sodium cacodylate, pH 6.6, in the presence of 2 µM TO. Peptide ligands were added in increments of 25 µM up to a final concentration of 200 µM. Data are presented as mean ± SD (n = 3) and fitted using a Hill-Slope dose–response curve.

c-MycC52 = assay: UV titration, c-MycC52; type: binding; conditions: for Kd: average of three experiments ± SD, SD; for selectivity for c-MycC52 against the complementary G4 forming sequence: from UV titration Kd values
Procedure: (§2) UV titrations were recorded using an Agilent Cary-60 UV/VIS spectrometer with a 10 mm path length black-walled quartz cuvette. Oligonucleotides (c-MycC27, c-MycC52, c-MycG27, c-MycG52, DAPc, DAPg, and dsDNA; sequences listed in Supplementary Table S1) were annealed as 250 µM stock solutions in 10 mM sodium cacodylate buffer (pH 6.6) in the presence or absence of 100 mM KCl. Spectra were recorded at room temperature over a wavelength range of 300–500 nm with 1 nm intervals. Buffer-only spectra were recorded and subtracted from each dataset as blanks. Peptide ligands were prepared as 1 mM stock solutions in DMSO and added to the cuvette at a final concentration of 10 µM in buffer prior to DNA addition. DNA stock was diluted to 50 µM in buffer and was added stepwise to the peptide solution to reach 2.5 µM final concentration, followed by additions from the 250 µM DNA stock to reach final DNA concentrations of 30 or 50 µM. The absorbance at 350 nm was monitored and plotted against DNA concentration. Binding curves were fitted using a one-site binding model in GraphPad Prism version 10.1.2, and Kd values were determined from normalized data to represent the DNA-ligand bound fraction.
(§3) Despite the demonstrable importance of the extended five-tract C-rich sequence within the c-Myc promoter, most studies looking at ligand binding use the shorter sequences. […] Although the iM-targeting antibody is specific for iM as a structure, it also binds multiple types of iM-structures.

c-MycC27 = assay: CD melting of c-MycC27; type: binding; conditions: 10 µM DNA; for TM c-MycC27, first (lower) transition / TM c-MycC27, second (higher) transition: 10 mM NaCaco pH 6.6, 10 molar eqv. peptide, mean ± SEM (n=4); for effect on c-MycC27 thermal stability, in words: pH 6.6, 10 molar equivalents peptide
Procedure: as §1

dsDNA = assay: UV titration, dsDNA; type: binding; set-up: key to Kd dsDNA, 100 mM KCl: Binding classified as non-specific (NS) showed no consistent or concentration-dependent pattern, under the tested conditions; key to Kd dsDNA: NS = non-specific binding indicates where no significant pattern of binding was observed at the concentration range of the experiment; conditions: for Kd dsDNA: UV titration at 350 nm, 10 µM peptide, 10 mM sodium cacodylate pH 6.6, no KCl; for Kd dsDNA, 100 mM KCl: UV titration, 10 mM sodium cacodylate 100 mM potassium chloride pH 6.6, two experiments
Procedure: as §2, §3

c-MycG52 = assay: UV titration, c-MycG52; type: binding
Procedure: as §2, §3

[1] = system: human insulin promoter (ILPR) firefly luciferase reporter in HEK293 cells; assay: Dual-luciferase reporter assay, insulin promoter (ILPR); type: cell-based; conditions: HEK293, 4 h, 10 µM peptide with Nanocin Pro
c-MycG27 = assay: CD melting of c-MycG27; type: binding; conditions: 10 µM DNA; for TM c-MycG27: 10 mM NaCaco pH 6.6, 10 molar eqv. peptide, mean ± SEM (n=4); for effect on c-MycG27 thermal stability, in words: pH 6.6, 10 molar equivalents peptide
Procedure: as §1

[2] = UV titration at 350 nm, 10 µM peptide, 10 mM sodium cacodylate pH 6.6, no KCl, room temperature, read-out: Kd c-MycC52
[3] = read-out: Kd c-MycC52, 100 mM KCl, UV titration, 10 mM sodium cacodylate 100 mM potassium chloride pH 6.6
[4] = 10 mM sodium cacodylate pH 6.6, 10 molar equivalents peptide vs DMSO, mean ± SEM (n = 4), SEM
[5] = UV titration at 350 nm, 10 µM peptide, 10 mM sodium cacodylate pH 6.6, no KCl, binding did not plateau at the concentration range, read-out: Kd c-MycG52
[6] = read-out: Kd c-MycG52, 100 mM KCl, UV titration, 10 mM sodium cacodylate 100 mM potassium chloride pH 6.6, average of three experiments ± SD, SD

Row | Compound | TM DS (dsDNA (DS)) | ΔTM DS (dsDNA (DS)) | effect on dsDNA melting compared to the solvent controls, in words (dsDNA (DS)) | relative binding affinity ranking (TO displacement) (c-MycC52 iM) | Kd (c-MycC52; [2]) | selectivity for c-MycC52 against the complementary G4 forming sequence (c-MycC52) | Kd (c-MycC52; [3]) | TM c-MycC27, first (lower) transition (c-MycC27; SEM) | TM c-MycC27, second (higher) transition (c-MycC27; SEM) | ΔTM c-MycC27, first value (transition at lower temperature) (c-MycC27; [4]) | ΔTM c-MycC27, second value (transition at higher temperature) (c-MycC27; [4]) | effect on c-MycC27 thermal stability, in words (c-MycC27) | Kd dsDNA (dsDNA) | Kd dsDNA, 100 mM KCl (dsDNA) | Kd (c-MycG52; [5]) | Kd (c-MycG52; [6]) | insulin promoter (ILPR) reporter response [1] | TM c-MycG27 (c-MycG27; SEM) | ΔTM c-MycG27 (c-MycG27; [4]) | effect on c-MycG27 thermal stability, in words (c-MycG27)
1 | CC(=O)N1CCC[C@H]1C(=O)N[C@H](C(=O)N[C@@H](CC(N)=O)C(=O)N[C@H](C(=O)N[C@@H](CO)C(=O)NCC(=O)N[C@@H](CCCNC(=N)N)C(=O)N[C@@H](CC(N)=O)C(=O)N[C@@H](Cc1ccc(O)cc1)C(=O)N[C@@H](CC(C)C)C(=O)N[C@@H](Cc1ccccc1)C(=O)N[C@@H](CS)C(N)=O)C(C)C)[C@@H](C)O [Pep-PTN] (Ac-PTNVSGRNYLFC-NH2) | 52 ± 1.0 °C | 0 ± 0.6 °C | no effect on dsDNA melting | SLC > PTN > VSE > EIE > RVS | 930 ± 80 nM | about 50 fold | 1540 ± 30 nM | 27 ± 0.7 °C | 79 ± 0.5 °C | 0 ± 0.5; 0 ± 0.5 °C | 0 ± 0.5; 0 ± 0.5 °C | neither stabilized nor destabilized | NS | NS | > 50000 nM | 45000 ± 4000 nM | no significant change in response | 50 ± 1.0 °C | −1 ± 0.5 °C | neither stabilized nor destabilized
2 | CC(=O)N[C@H](C(=O)N[C@@H](CO)C(=O)N[C@@H](CCC(=O)O)C(=O)N[C@@H](C)C(=O)N[C@@H](Cc1c[nH]c2ccccc12)C(=O)N[C@@H](CCCCN)C(=O)N[C@@H](CCC(=O)O)C(=O)N[C@H](C(=O)N[C@@H](CCCCN)C(=O)NCC(=O)N[C@@H](Cc1ccccc1)C(=O)N[C@@H](Cc1ccccc1)C(N)=O)C(C)C)C(C)C [Pep-VSE] (Ac-VSEAWKEVKGFF-NH2) | 51 ± 0.8 °C | 0 ± 0.8 °C | no effect on dsDNA melting | SLC > PTN > VSE > EIE > RVS | 430 ± 30 nM | ~100 fold | 690 ± 60 nM | 26 ± 1.0 °C | 80 ± 0.6 °C | 0 ± 0.6 °C | – | neither stabilized nor destabilized | NS | NS | > 50000 nM | 35000 ± 3000 nM | no significant change in response | 48 ± 1.0 °C | – | neither stabilized nor destabilized

Reference: article PMC12596500, “Affinity-selected peptide ligands specifically bind i-motif DNA and modulate c-Myc gene expression” (Nucleic Acids Research, 2025)
